# Measurements taken from patent US20210213120A1, “KRAS PEPTIDE VACCINE COMPOSITIONS AND METHOD OF USE” (THE MEDICAL COLLEGE OF WISCONSIN , INC., priority 2017, published 2021).
# No end group written: not given here.
# Key:
# IFN-γ response = test: IFN-γ ELISPOT of PD-1 and PD-L1 peptides in naïve mice; assay type: in vivo, mouse
# Protocol: The immunogenicity of PD-1 and PD-L1 were tested in naïve mice using the IFN-γ ELISPOT assay. (P<0.0001, data not shown)
# Cancer cells are naturally attacked by cells of the immune system, but can induce a state of tolerance whereby they escape from immune attack, for which immune checkpoint proteins such as PD1, VISTA are important ones mediating this immune escape. Interaction of PD-1 on activated T cells and PD-L1 on cancer cells lead to inhibition of the cytotoxic T cells. Investigators have recently identified spontaneous T cell reactivity against PD-L1 in the tumor microenvironment and in the peripheral blood of patients with metastatic melanoma and healthy donors, PD-L1 reactive CD8 T cells are cytotoxic and can kill cancer cells and immune regulatory cells in vitro, and responsive PD-L1 peptide vaccine has therefore under development. Here, by using a multi-scoring system that combines multiple MHC class II peptide binding algorithms, we identified immunogenic “hotspots”, and selected 7 peptides for PD-L1 and 11 peptides for PD-1 from these immunogenic “hot” regions (see Table 3). We then tested their immunogenicity in naïve mice using the IFN-γ ELISPOT assay.
# [1] = Immune response to KRAS peptides (Table 1)
# [2] = system: IFN-γ-secreting splenocytes; test: IFN-γ ELISPOT screen of single KRAS peptides in naïve mice; assay type: in vivo, mouse; conditions: for mean IFN-γ-secreting cells / IFN-γ response (ELISPOT): splenocytes pulsed 72 h; for IFN-γ response (ELISPOT): naïve mice vaccinated with single KRAS peptide
# Description: FIG. 1A-1C. In vivo screen for peptide candidates by ELISPOT in naïve mice. (A) Immunogenic heatmap for identifying peptides associated with highest binding affinity across multiple MHC class II alleles. Colors represent percentile to highest score from three algorithms for each amino acid from dark red to light blue in the order of rank scores. Color strata are as follows: dark red ≥75% of the highest score; red=50˜75% of the highest score; orange=40˜50% of highest score; yellow=30˜40% of the highest score; green=20˜30% of the highest score; blue ≤20% of the highest score. (B) Representative ELISPOT results showing T cell responses to specific KRAS peptides from mouse splenocytes stimulated with no antigen (first row), negative control peptide (HIV peptide, second row), target peptide (third row), or positive control ConA (fourth row). (C) Quantified ELISPOT results. Then, splenocytes were collected and pulsed with no antigen control, each single KRAS peptide, or negative control peptide (HIV peptide), or positive control ConA. After 72 h of incubation, the ELISPOT assay was performed, plates were scanned, and spot numbers were statistically analyzed. Open bar, ELISPOT reads from KRAS peptide vaccinated animals pulsed with specific KRAS peptide; blue bar, ELISPOT reads from animals injected only with adjuvant and pulsed with specific KRAS peptide; black bar, ELISPOT reads from three most significant KRAS peptide vaccinated animals. Data are shown as the mean±SE of three replicate wells per group, n=5.
# Mice were vaccinated with 50 μg of each peptide. Phosphate buffered saline (PBS) was added to bring the total volume to 50 μL/mouse. An equal amount of adjuvant (Complete Freund's Adjuvant or Incomplete Freund's Adjuvant) was added to bring the total volume to 100 μL/mouse. Mice were injected subcutaneously on the shoulder at 7 weeks of age, and boosting vaccination was given every two weeks for the first three boosting and every 4 weeks for the last three boosting as shown in FIG. 2A. Transgene Kras was initiated with Dox diet (625 mg/kg diet) one week after the fourth vaccination, and Dox diet was given throughout of the study.
# (§1) Cell suspensions from whole spleens were filtered through a 70 μm cell strainer (BD) and subjected to red blood cell lysis using ACK lysis buffer. 1.5˜3.0×10^4 cells were plated into individual wells of a MAIPS4510 Multiscreen 96 well plate previously coated with anti-interferon γ […] antibody and containing media with either peptide, positive control (concanavalin A) or negative control (HIV peptide, or no antigen). After 72 hours, plates were washed and a secondary antibody (BD) was added and incubated on the plate overnight at 4 degrees Celsius. Wells were then washed with PBS and HRP streptavidin was added. Following 1 h incubation, the plate was developed using AEC substrate for between 5-25 minutes. The plate was subsequently gently washed under cold running tap water. When dry, an automated plate reader system (CTL Technologies) was used to image the plates and quantify spot number.
# Using a multi-scoring system that combines multiple MHC class II peptide binding algorithms, immunogenic “hotspots” were identified; 11 peptides (Table 2) were selected; their immunogenicity was evaluated in naïve mice using the IFN-γ ELISPOT assay as previously reported. The KRAS 17-mer peptide (p5-21) that covers the mutation in codon 12, and its G12D mutant (p5-21 G12D) were also selected as robust peptides to stimulate immune response. […] To include peptides against both wild-type and mutant KRAS, also based on a high degree of homology between human and mouse KRAS, peptides p5-21 (SEQ ID NO:2), p5-21 G12D (SEQ ID NO:1), p17-31 (SEQ ID NO:4), and p78-92 (SEQ ID NO:6) were chosen to formulate a multipeptide KRAS vaccine in the preventive efficacy study.
# [3] = system: IFN-γ-secreting splenocytes; test: IFN-γ ELISPOT of splenocytes from vaccinated CCSP-KRAS^G12D mice at end of study (epitope spreading); assay type: in vivo, mouse; conditions: for mean IFN-γ-secreting cell responses: splenocytes of mice vaccinated with KRAS combination vaccine, pulsed with the named peptide(s) 72 h
# Protocol: FIG. 3. Epitope spreading tested by IFN-γ ELISPOT. Mice were vaccinated with the KRAS combination vaccine (p5-21, p5-21 G12D, p17-31, and p78-92). Then splenocytes were collected and pulsed with KRAS combo peptides, each single KRAS peptide, unvaccinated KRAS peptide p75-89, combo IGFR peptides, or Tert peptide. After 72 h of incubation, the ELISPOT assay was performed, plates were scanned, and spot numbers were statistically analyzed.
# as §1
# In order to examine the specific immunity that confers the protective effect of the KRAS vaccine, an IFN-γELISPOT assay of splenocytes isolated from adjuvant alone and vaccinated CCSP-KRAS^G12D mice was performed at the end of the study. […] The mean IFN-γ-secreting cell responses were 216 in the pooled KRAS peptides group, and 36, 40, 116, and 52 to individual peptides p5-21, p5-21 G12D, p17-31, and p78-92, respectively. […] There was no evidence of general immune hyperactivity stimulation as none of the animals responded to an irrelevant naïve antigen, further supporting the notion that the immune response detected in the vaccinated group was highly specific to the KRAS vaccine.
# [4] = system: tumor infiltrated CD8+ cells and Tregs; test: T cells in spleen or tumor of K-rasLA1 mice; assay type: in vivo, mouse; conditions: 4~5 weeks after treatment
# Protocol: FIG. 8. UAB30 increased tumor infiltrated CD8+ cells and decreased Tregs in tumor. K-rasLA1 mice were treated with control, Kras-vaccine, UAB30 alone or Kras-vaccine and UAB30 and the % CD4+ or CD8+ T cells were assessed in the spleen or tumor of mice at 4˜5 weeks after treatment.
# K-rasLA1 mouse develops premalignant lung lesions that progress to multifocal lung adenocarcinomas due to somatic mutations in K-ras, which occurs at the birth of these mice through DNA recombination. […] In this model, vaccination was given when mice were 8˜10 weeks old, at which numerous pleural lesions already formed in lung, yet K-ras vaccination alone significant inhibited lung tumor multiplicity and load in K-rasLA1 mice, decreased tumor numbers from ˜12 to ˜7 per mouse, and tumor load from ˜55 mm3 to ˜30 mm3 (FIG. 7).
# [5] = system: K-ras-driven lung cancer syngraft; test: K-ras-driven lung cancer syngraft tumor model (avasimibe combination); assay type: in vivo, mouse; conditions: tumor volume over time
# Protocol: FIG. 10. K-ras vaccine synergize with Avasamibe to inhibit lung tumor progression in K-ras-driven lung cancer syngraft tumor model.
# Mice were treated with the combination of K-ras multi-peptide vaccine with avasimibe in a K-ras-driven lung cancer syngraft model. Tumor volume was assessed over time post tumor cell inoculation.
# Therefore, we tested the combination of K-ras multi-peptide vaccine with avasimibe in a K-ras-driven lung cancer syngraft model.
molecule,measurement,setting,value
SWQSGWLLEVPNGPW [mPD1-21],"IFN-γ response, peptides for PD-1",IFN-γ response,strongest IFN-γ response
KLVVVGAVGVGKSALTI [P5-21G12V],Immune response,[1],Yes
AGGVGKSALTIQLLQNHFVDEYD [p11],Immune response,[1],Yes
KLVVVGADGVGKSALTI [p5-21 G12D],mean IFN-γ-secreting cells,[2]; naïve mice,around 100 spots per well (SPW)
same,Immune response,[1],Yes
same,mean IFN-γ-secreting cell responses,[3],40
FLCVFAINNTKSFED [p78-92],IFN-γ response (ELISPOT),[2],strongest IFN-γ response
same,Immune response,[1],Yes
same,mean IFN-γ-secreting cell responses,[3],52
QDARFQIIQLPNRHD [mPD1-94],"IFN-γ response, peptides for PD-1",IFN-γ response,strongest IFN-γ response
KLVVVGAGGVGKSAL [p5-19],response relative to p5-21,"[2]; IFN-γ ELISPOT, naïve mice",less than 50%
CC(=C/C=C/C(C)=C/C(=O)O)/C=C1\CCCc2ccccc21 [UAB30],Tregs in tumors,[4],decreased
same,infiltrated CD8+ cells in tumors,[4],significantly increased
LAVFCSTSMSEARGA [mPD1-193],"IFN-γ response, peptides for PD-1",IFN-γ response,strongest IFN-γ response
CC(C)c1cc(C(C)C)c(CC(=O)NS(=O)(=O)Oc2c(C(C)C)cccc2C(C)C)c(C(C)C)c1 [avasimibe],tumor growth inhibition,[5],effective in inhibiting tumor growth
DAFYTLVREIRKHKE [p154-168],IFN-γ response (ELISPOT),[2],much weaker response
CHLLRAFTITAPKDL [mPDL1-13],"IFN-γ response, peptides against PD-L1",IFN-γ response,strongest IFN-γ response
TgegFLCVFAINNTKSFED (TGEGFLCVFAINNTKSFED) [P75],Immune response,[1],Yes
PQHSNFRGRASLPKD [mPDL1-76],"IFN-γ response, peptides against PD-L1",IFN-γ response,strongest IFN-γ response
KLVVVGAGGVGKSALTI [p5-21],IFN-γ response (ELISPOT),[2],strongest IFN-γ response
same,mean IFN-γ-secreting cells,[2]; naïve mice,around 100 spots per well (SPW)
same,Immune response,[1],Yes
same,mean IFN-γ-secreting cell responses,[3],36
SALTIQLIQNHFVDE [p17-31],IFN-γ response (ELISPOT),[2],strongest IFN-γ response
same,Immune response,[1],Yes
same,mean IFN-γ-secreting cell responses,[3],116
FYTLVREIRKHKEKM [p156-170],IFN-γ response (ELISPOT),[2],strongest IFN-γ response
same,Immune response,[1],Yes
LPATHPPQNRTHWVL [mPDL1228],"IFN-γ response, peptides against PD-L1",IFN-γ response,strongest IFN-γ response
same,"IFN-γ response, peptides for PD-1",IFN-γ response,strongest IFN-γ response
VGAGGVGKSALTIQLLQNHFVDEYD [p9],Immune response,[1],Yes
GEGFLCVFAINNTKS [p75-89],IFN-γ response (ELISPOT),[2],much weaker response
same,IFN-γ response to non-vaccine KRAS peptide,[3]; splenocytes of vaccinated animals,strong response
AGGVGKSALTIQLLQNHFVDE [p11s],Immune response,[1],Yes
"kSALTIQLIQNHFVDEyd (KSALTIQLIQNHFVDEYD; not fully specified (residues 1, 17, 18); printed as kSALTIQLIQNHFVDEyd) [P16]",Immune response,[1],Yes
